Experimental data taken from publication PMC7463930, “Evidence Supporting an Antimicrobial Origin of Targeting Peptides to Endosymbiotic Organelles” (Cells, 2020).
No end group written: not given here.

Test system: Bacillus subtilis
Assay: Standard minimum inhibitory concentration broth microdilution assay
Format: cell-based
Protocol: Standard minimum inhibitory concentration broth microdilution assays in the presence of BSA/acetic acid were performed in triplicate as described in [65] using peptides chemically synthesized to ≥95% purity (Proteogenix). Dilution series are based on net peptide content, calculated by multiplying the dry weight by %N and by purity. %N is a measure of the peptide (rather than salt) fraction in the lyophilized product, while purity, provided by the manufacturer, is the fraction of the peptide with the desired sequence among all supplied peptides.
To determine the AMP-activity of TPs, we performed the symmetrical experiment. Several chemically synthesized TPs, chosen for their variable proximity to Class I HA-RAMPs (Figure S8B), were used to challenge Bacillus subtilis in a standard assay, using magainin II as a positive control (Figure 7). […] A high sensitivity was deemed a useful feature for an antimicrobial assay in this proof-of-principle experiment, since we expected TPs to have a lower activity than bona fide AMPs as they have been selected for targeting and not for impeding microbial growth over the last 1.5 By.
B. subtilis was challenged with serial dilutions of synthetic peptides (See Table S7 for sequences): the Rattus norvegicus peptide hormone cholecystokinin-22, the C. reinhardtii tSP of lumenal 16.5 kDa protein, the HA-RAMP magainin II, Neurospora crassa mTP of ATP synthase F1β subunit and C. reinhardtii cTPs from RBCA and plastocyanin (PCY1) or mTPs from cytochrome c oxidase 12 kDa subunit (COX13) and Serine HydroxylMethyl Transferase 1 (SHMT1). (A) One dilution plate out of three performed replicates is shown to illustrate how the data was obtained. Transparent wells illustrate absence of growth. Red arrows point to the minimal peptide inhibiting concentration. (B) Minimum inhibitory concentrations (MIC) for each of the three replicate plates are reported in a table. TEXT PRINTED IN THE PICTURE: (B) cck-22: MIC (μg/ml) rep 1: >1000; MIC (μg/ml) rep 2: >1000; MIC (μg/ml) rep 3: >1000 | (B) TL16-tSP: MIC (μg/ml) rep 1: >1000; MIC (μg/ml) rep 2: >1000; MIC (μg/ml) rep 3: >1000 | (B) Magainin II: MIC (μg/ml) rep 1: 4; MIC (μg/ml) rep 2: 4; MIC (μg/ml) rep 3: 4 | (B) pF1β-mTP: MIC (μg/ml) rep 1: 8; MIC (μg/ml) rep 2: 4; MIC (μg/ml) rep 3: 8 | (B) RBCA-cTP: MIC (μg/ml) rep 1: 63; MIC (μg/ml) rep 2: 63; MIC (μg/ml) rep 3: 63 | (B) COX13-mTP: MIC (μg/ml) rep 1: 250; MIC (μg/ml) rep 2: 250; MIC (μg/ml) rep 3: 250 | (B) PCY1-cTP: MIC (μg/ml) rep 1: 1000; MIC (μg/ml) rep 2: 1000; MIC (μg/ml) rep 3: 1000 | (B) SHMT1-mTP: MIC (μg/ml) rep 1: 31; MIC (μg/ml) rep 2: 31; MIC (μg/ml) rep 3: 31

## cholecystokinin-22 (NLQGLDPSHRISDRDYMGWMDF; ends and bridges not checked; UniProt P01355 82-103, looked up) [cck-22, Rattus norvegicus small peptide hormone cholecystokinin-22, used as negative control]
B. subtilis challenged with chemically synthesized peptides, negative controls
  inhibited growth (in words): neither
B. subtilis, broth microdilution in the presence of BSA/acetic acid, serial dilutions based on net peptide content, peptides synthesized to ≥95% purity, replicate plate 1 of 3
  MIC (μg/ml) rep 1: > 1000 µg/mL
B. subtilis, broth microdilution in the presence of BSA/acetic acid, serial dilutions based on net peptide content, peptides synthesized to ≥95% purity, replicate plate 2 of 3
  MIC (μg/ml) rep 2: > 1000 µg/mL
B. subtilis, broth microdilution in the presence of BSA/acetic acid, serial dilutions based on net peptide content, peptides synthesized to ≥95% purity, replicate plate 3 of 3
  MIC (μg/ml) rep 3: > 1000 µg/mL
